Patent US12612368B2 (Remedy Plan, Inc., priority 2019, dated 2026)
Like-named read-outs stand apart in the source and are kept apart here.

Tests used:
MV-4-11 cells = assay: Cell viability in MV-4-11 cells (CellTiter Glo2); type: cell-based; settings: Homo sapiens, MV4-11, 96 h, 8-point dose response, 4 days
Protocol: Approximately 10,000 MV-4-11 cells per well of a 96-well plate were treated with DMSO (no drug control) or each compound in Tables E1 and E2 in an 8-point dose response for 4 days, Cell viability was measured using CellTiter Glo2. The ICse of each compound was determined using CDD Vault.

NAMPT = target: T1, NAMPT (Homo sapiens, UniProt P43490); assay: NAMPT Activity Assay (Abcam #ab221819); type: biochemical; settings: purified NAMPT, two-step reaction, OD450 nm; percent inhibition vs no drug; compound concentration not stated
T1 construct: purchased Abcam ab221819
T1 sequence (P43490 whole entry): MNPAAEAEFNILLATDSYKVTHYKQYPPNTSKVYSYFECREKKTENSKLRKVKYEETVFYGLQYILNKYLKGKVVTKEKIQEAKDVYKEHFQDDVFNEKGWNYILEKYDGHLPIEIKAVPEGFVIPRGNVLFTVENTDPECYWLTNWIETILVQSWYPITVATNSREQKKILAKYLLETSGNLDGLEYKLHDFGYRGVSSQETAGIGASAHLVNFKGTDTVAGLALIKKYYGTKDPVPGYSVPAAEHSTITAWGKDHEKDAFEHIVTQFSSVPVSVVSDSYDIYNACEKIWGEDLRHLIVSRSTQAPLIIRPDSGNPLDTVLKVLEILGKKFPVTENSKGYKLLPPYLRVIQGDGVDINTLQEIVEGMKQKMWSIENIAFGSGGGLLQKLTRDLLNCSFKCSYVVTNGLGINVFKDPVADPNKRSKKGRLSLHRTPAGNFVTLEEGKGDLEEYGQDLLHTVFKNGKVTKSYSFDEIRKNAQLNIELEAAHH

[1] = CellTiter Glo2 (Table E2), read-out: MV-4-11 Cell Viability, MV-4-11 IC50
[2] = CellTiter Glo2 (Table E1), read-out: MV-4-11 IC50

Row | SMILES | IC50 (MV-4-11 cells; [1]) | NAMPT Inhibition Code (NAMPT) | IC50 (MV-4-11 cells; [2])
1 | CC(=O)N(CC1CC1)c1ccc(-c2ccc(C(=O)NCc3ccc(N)nc3)cn2)cc1Cl [Compound I-677, 6-[4-[Acetyl(cyclopropylmethyl)amino]-3-chloro-phenyl]-N-[(6-amino-3-pyridyl)methyl]pyridine-3-carboxamide] | 0.00291 µM | C (C = ≥66% inhibition) | –
2 | CC(=O)N(CCC(F)(F)F)c1ccc(-c2ccc(C(=O)NCc3cccnc3)cn2)cc1C [Compound I-601, 6-[4-[Acetyl(3,3,3-trifluoropropyl)amino]-3-methyl-phenyl]-N-(3-pyridylmethyl)pyridine-3-carboxamide] | 0.0627 µM | B (B = ≥33 to <66% inhibition) | –
3 | CCC(=O)N(C)c1ccc(-c2ccc(C(=O)NCc3ccc(NCCN)nc3)cn2)cc1C [Compound I-527, N-((6-((2-aminoethyl)amino)pyridin-3-yl)methyl)-6-(3-methyl-4-(N-methylpropionamido)phenyl)nicotinamide] | 0.787 µM | A (A = <33% inhibition) | –
4 | CC(=O)N(CC1CC1)c1ccc(-c2ccc(C(=O)NCc3cccnc3C)cn2)cc1C [Compound I-488, 6-[4-[Acetyl(cyclopropylmethyl)amino]-3-methyl-phenyl]-N-[(2-methyl-3-pyridyl)methyl]pyridine-3-carboxamide] | 2.82 µM | A (A = <33% inhibition) | –
5 | CC(=O)N(CC1CC(F)(F)C1)c1ccc(-c2ccc(C(=O)NCc3cccnc3)cn2)cc1 [Compound I-412, 6-[4-[acetyl-[(3,3-difluorocyclobutyl)methyl]amino]phenyl]-N-(3-pyridylmethyl)pyridine-3-carboxamide] | – | B (B = ≥33 to <66% inhibition) | 0.0825 µM
6 | COC(=O)NCCN(C(C)=O)c1ccc(-c2ccc(C(=O)NCc3cccnc3C)cn2)cc1C [Compound I-487, Methyl N-[2-[N-acetyl-2-methyl-4-[5-[(2-methyl-3-pyridyl)methylcarbamoyl]-2-pyridyl]anilino]ethyl]carbamate] | 4.35 µM | A (A = <33% inhibition) | –
7 | CC(=O)N(CC1CC1)c1ccc(-c2ccc(C(=O)NCc3cccnc3)cn2)cc1C [Compound I-609, 6-[4-[Acetyl(cyclopropylmethyl)amino]-3-methyl-phenyl]-N-(3-pyridylmethyl)pyridine-3-carboxamide] | 0.0135 µM | C (C = ≥66% inhibition) | –
8 | CCC(=O)N(C)c1ccc(-c2ccc(C(=O)NCc3cccnc3C)cn2)cc1 [Compound I-392, 6-[4-[methyl(propanoyl)amino]phenyl]-N-[(2-methyl-3-pyridyl)methyl]pyridine-3-carboxamide] | – | A (A = <33% inhibition) | 6.23 µM
9 | CCC(=O)N(C)c1ccc(-c2ccc(C(=O)NCc3ccc(C)nc3C)cn2)cc1 [Compound I-394, N-[(2,6-dimethyl-3-pyridyl)methyl]-6-[4-[methyl(propanoyl)amino]phenyl]pyridine-3-carboxamide] | – | A (A = <33% inhibition) | 3.52 µM
10 | CC(=O)N(c1ccc(-c2ccc(C(=O)NCc3cccnc3)cc2)cc1Cl)C(C)C [Compound I-597, 4-[4-[Acetyl(isopropyl)amino]-3-chloro-phenyl]-N-(3-pyridylmethyl)benzamide] | 0.0216 µM | C (C = ≥66% inhibition) | –
11 | CC(=O)N(CC(F)F)c1ccc(-c2ccc(C(=O)NCc3cccnc3C)cn2)cc1 [Compound I-449, 6-[4-[acetyl(2,2-difluoroethyl)amino]phenyl]-N-[(2-methyl-3-pyridyl)methyl]pyridine-3-carboxamide] | 5.18 µM | A (A = <33% inhibition) | –
12 | CC(=O)N(CC1COC1)c1ccc(-c2ccc(C(=O)NCc3cccnc3C)cn2)cc1C [Compound I-510, 6-[4-[Acetyl(oxetan-3-ylmethyl)amino]-3-methyl-phenyl]-N-[(2-methyl-3-pyridyl)methyl]pyridine-3-carboxamide] | 5.91 µM | A (A = <33% inhibition) | –
13 | CC(=O)CC(=O)N(c1ccc(-c2ccc(C(=O)NCc3cccnc3C)cn2)cc1C)C(C)C [Compound I-497, 6-(4-(N-isopropyl-3-oxobutanamido)-3-methylphenyl)-N-((2-methylpyridin-3-yl)methyl)nicotinamide] | 5.72 µM | A (A = <33% inhibition) | –
14 | CC(=O)N(CC(F)F)c1ccc(-c2ccc(C(=O)NCc3cccnc3)cn2)cc1C [Compound I-608, 6-[4-[Acetyl(2,2-difluoroethyl)amino]-3-methyl-phenyl]-N-(3-pyridylmethyl)pyridine-3-carboxamide] | 0.22 µM | B (B = ≥33 to <66% inhibition) | –
15 | CC(=O)N(CC(C)C)c1ccc(-c2ccc(C(=O)NCc3cccnc3)cc2)cc1 [Compound I-402, 4-[4-[acetyl(isobutyl)amino]phenyl]-N-(3-pyridylmethyl)benzamide] | – | C (C = ≥66% inhibition) | 0.0587 µM
16 | CC(=O)N(C)c1ccc(-c2ccc(C(=O)NCc3cccnc3C)cn2)cc1C#N [Compound I-456, 6-[4-[acetyl(methyl)amino]-3-cyano-phenyl]-N-[(2-methyl-3-pyridyl)methyl]pyridine-3-carboxamide] | > 30 µM | A (A = <33% inhibition) | –
17 | CC(=O)N(CCC(F)F)c1ccc(-c2ccc(C(=O)NCc3cccnc3)cn2)cc1C [Compound I-639, 6-[4-[Acetyl(3,3-difluoropropyl)amino]-3-methyl-phenyl]-N-(3-pyridylmethyl)pyridine-3-carboxamide] | 0.133 µM | B (B = ≥33 to <66% inhibition) | –
18 | CC(=O)N(CCC(F)(F)F)c1ccc(-c2ccc(C(=O)NCc3cccnc3C)cn2)cc1 [Compound I-499, 6-[4-[Acetyl(3,3,3-trifluoropropyl)amino]phenyl]-N-[(2-methyl-3-pyridyl)methyl]pyridine-3-carboxamide] | 3.99 µM | A (A = <33% inhibition) | –
19 | CC(=O)N(CC1CCC1)c1ccc(-c2ccc(C(=O)NCc3cccnc3)cn2)cc1 [Compound I-453, 6-[4-[acetyl(cyclobutylmethyl)amino]phenyl]-N-(3-pyridylmethyl)pyridine-3-carboxamide] | 0.038 µM | C (C = ≥66% inhibition) | –
20 | CCC(=O)N(C)c1ccc(-c2ccc(C(=O)Nc3nc(C)cs3)cn2)cc1 [Compound I-355, 6-[4-[methyl(propanoyl)amino]phenyl]-N-(4-methylthiazol-2-yl)pyridine-3-carboxamide] | – | A (A = <33% inhibition) | 2.91 µM
21 | CCN(C(C)=O)c1ccc(-c2ccc(C(=O)NCc3cccnc3C)cn2)cc1Cl [Compound I-444, 6-[4-[acetyl(ethyl)amino]-3-chloro-phenyl]-N-[(2-methyl-3-pyridyl)methyl]pyridine-3-carboxamide] | – | A (A = <33% inhibition) | 1.82 µM
22 | CCC(=O)Nc1ccc(-c2ccc(C(=O)NCc3cccnc3)cn2)cc1 [Compound I-354, 6-[4-(propanoylamino)phenyl]-N-(3-pyridylmethyl)pyridine-3-carboxamide] | – | A (A = <33% inhibition) | > 30 µM
